Data taken from US8778966B2, “Quinolinone derivatives as PARP and tank inhibitors” (Janssen Pharmaceutica, NV, priority 2007, dated 2014).

Experiments:
[1] = biological target: T1, Human PARP-1 enzyme (Homo sapiens, UniProt P09874); assay: In vitro Scintillation Proximity Assay (SPA) for PARP-1 inhibitory activity; format: biochemical; conditions: read-out: in vitro SPA assay PARP-1 pIC50 (converted)
T1 construct: purchased Trevigen
Method: Compounds of the present invention were tested in an in vitro assay based on SPA technology (proprietary to GE healthcare).
In principle, the assay relies upon the well established SPA technology for the detection of poly(ADP-ribosyl)ation of biotinylated target proteins, i.e histones. This ribosylation is induced using nicked DNA activated PARP-1 enzyme and [^3H]-nicotinamide adenine dinucleotide ([^3H]-NAD^+) as ADP-ribosyl donor.
Histones (type II-A, supplier: Sigma) were biotinylated using the biotinylation kit of Amersham and stored aliquoted at −20° C. A stock solution of 100 mg/ml SPA poly(vinyl toluene) (PVT) beads (supplier: Amersham) was made in PBS. A stock solution of 61.6 nM [^3H]-NAD^+ was made by adding [^3H]-NAD^+ (0.1 mCi/ml, supplier: Perkin Elmer) to incubation buffer (50 mM Tris/HCl, pH 8; 0.2 mM DTT; 4 mM MgCl2). A solution of 4 mM NAD^+ (supplier: Sigma) was made. Human PARP-1 enzyme was obtained from Trevigen. Biotinylated histones and PVT-SPA beads were mixed and pre-incubated for 30 min. at room temperature. PARP-1 enzyme (concentration was lot dependent) was mixed with the nicked DNA and the mixture was pre-incubated for 30 min. at 4° C. Equal parts of this histones/PVT-SPA beads solution and PARP-1 enzyme/DNA solution were mixed and 75 μl of this mixture together with 1 μl of compound in DMSO and 25 μl of [^3H]-NAD^+ was added per well into a 96-well microtiterplate. The final concentrations in the incubation mixture were 2 μg/ml for the biotinylated histones, 2 mg/ml for the PVT-SPA beads, 0.25 μg/ml for the nicked DNA and between 0.1-0.2 μg/ml for the PARP-1 enzyme. After incubation of the mixture for 20 min. at room temperature, the reaction was terminated by adding 100 μl of 4 mM NAD^+ in water (final concentration 2 mM) and plates were mixed. The beads were sedimented by centrifugation (10 min, 800 rpm). and plates transferred to a TopCountNXT™ (Packard) for scintillation counting, values were expressed as counts per minute (cpm). For each experiment, controls (containing PARP-1 enzyme and DMSO without compound), a blank incubation (containing DMSO but no PARP-1 enzyme, no DNA or compound) and samples (containing PARP-1 enzyme, DNA and compound dissolved in DMSO) were run in parallel. All compounds tested were dissolved and eventually further diluted in DMSO. A dose-response curve was made wherein the compounds were tested at concentrations between 10^−5M and 3×10^−9M. In each test, the blank value was subtracted from both the control and the sample values. The control sample represented maximal PARP-1 enzyme activity. For each sample, the amount of cpm was expressed as a percentage of the mean cpm value of the controls. When appropriate, IC50-values (concentration of the drug, needed to reduce the PARP-1 enzyme activity to 50% of the control) were computed using linear interpolation between the experimental points just above and below the 50% level. Herein the effects of test compounds are expressed as pIC50 (the negative log value of the IC50-value). As a reference compound, 4-amino-1,8-naphthalimide was included to validate the SPA assay.

[2] = biological target: T2, TANK-2 enzyme (Homo sapiens, UniProt Q9H2K2); assay: In vitro Scintillation Proximity Assay (SPA) for TANK-2 inhibitory activity; format: biochemical; conditions: in vitro SPA assay TANK-2 pIC50
T2 construct: made in house
T2 sequence (Q9H2K2 1-1166): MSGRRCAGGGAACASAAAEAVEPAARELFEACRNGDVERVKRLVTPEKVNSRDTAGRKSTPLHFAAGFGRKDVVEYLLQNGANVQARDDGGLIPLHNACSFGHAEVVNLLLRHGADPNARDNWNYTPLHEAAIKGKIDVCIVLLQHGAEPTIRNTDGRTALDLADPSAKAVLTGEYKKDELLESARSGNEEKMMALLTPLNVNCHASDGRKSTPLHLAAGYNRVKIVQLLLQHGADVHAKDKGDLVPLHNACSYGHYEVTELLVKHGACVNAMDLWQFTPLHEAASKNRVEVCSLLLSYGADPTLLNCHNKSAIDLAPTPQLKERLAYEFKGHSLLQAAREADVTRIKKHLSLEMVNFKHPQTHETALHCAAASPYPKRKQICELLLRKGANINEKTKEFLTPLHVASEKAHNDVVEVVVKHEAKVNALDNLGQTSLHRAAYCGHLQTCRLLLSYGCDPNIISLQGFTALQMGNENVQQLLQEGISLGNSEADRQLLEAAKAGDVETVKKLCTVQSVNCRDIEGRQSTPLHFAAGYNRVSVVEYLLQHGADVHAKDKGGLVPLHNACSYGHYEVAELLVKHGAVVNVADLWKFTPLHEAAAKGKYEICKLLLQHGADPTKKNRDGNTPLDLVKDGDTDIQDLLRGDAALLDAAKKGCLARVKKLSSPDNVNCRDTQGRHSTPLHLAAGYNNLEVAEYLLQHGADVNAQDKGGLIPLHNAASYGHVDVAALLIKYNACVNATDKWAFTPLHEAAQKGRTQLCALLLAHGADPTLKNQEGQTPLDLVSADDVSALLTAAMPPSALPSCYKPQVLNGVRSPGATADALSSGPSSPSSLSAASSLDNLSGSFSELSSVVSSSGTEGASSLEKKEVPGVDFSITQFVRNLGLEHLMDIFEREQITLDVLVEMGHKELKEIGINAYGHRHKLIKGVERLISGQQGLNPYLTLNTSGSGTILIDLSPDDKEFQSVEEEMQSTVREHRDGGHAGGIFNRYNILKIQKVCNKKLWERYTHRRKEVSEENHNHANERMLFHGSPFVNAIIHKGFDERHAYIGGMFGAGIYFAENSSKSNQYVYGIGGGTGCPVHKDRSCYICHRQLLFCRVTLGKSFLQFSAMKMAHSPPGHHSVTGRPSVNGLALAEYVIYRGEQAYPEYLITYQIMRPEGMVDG
Method: Compounds of the present invention were tested in an in vitro assay based on SPA technology with Ni Flash plates (96 or 384 well). In principle, the assay relies upon SPA technology for the detection of auto-poly(ADP-ribosyl)ation of TANK-2 protein using [^3H]-nicotinamide adenine dinucleotide ([^3H]-NAD^+) as ADP-ribosyl donor.
A stock solution of 100 nM [3H]-NAD^+/NAD (0.1 mCi/ml, supplier: Perkin Elmer) and 0.25 μM NAD (Sigma) was made in assay buffer (60 mM Tris/HCl, pH 7.4; 0.9 mM DTT; 6 mM MgCl2). The TANK-2 enzyme was produced as described in EP1238063. 60 μl of assay buffer, together with 1 μl of compound in DMSO, 20 μl of [^3H]-NAD^+/NAD and 20 μl of TANK-2 enzyme (final concentration 8 μg/ml) was added per well into a 96-well Ni-coated flash plate (Perkin Elmer). After incubation of the mixture for 120 min. at room temperature, the reaction was terminated by adding 60 μl of stopsolution (42.6 mg NAD in 6 ml H2O). The plates were covered with a plate sealer and placed in a TopCountNXT™ (Packard) for scintillation counting. Values were expressed as counts per minute (cpm). For each experiment, controls (containing TANK-2 enzyme and DMSO without compound), a blank incubation (containing DMSO but no TANK-2 enzyme or compound) and samples (containing TANK-2 enzyme and compound dissolved in DMSO) were run in parallel. All compounds tested were dissolved and eventually further diluted in DMSO. In first instance, compounds were tested at a concentration of 10^−5M. […] In each test, the blank value was subtracted from both the control and the sample values. The control sample represented maximal TANK-2 enzyme activity. For each sample, the amount of cpm was expressed as a percentage of the mean cpm value of the controls. When appropriate, IC50-values (concentration of the drug, needed to reduce the TANK-2 enzyme activity to 50% of the control) were computed using linear interpolation between the experimental points just above and below the 50% level. Herein the effects of test compounds are expressed as pIC50 (the negative log value of the IC50-value). As reference compounds, 3-aminobenzamide and 4-amino-1,8-naphtalimide were included to validate the SPA assay. Herein the assay was described using 96-well plates. In the assay using 384-well plates the same final concentrations were used and volumes were adapted.

T1 sequence (P09874 whole entry): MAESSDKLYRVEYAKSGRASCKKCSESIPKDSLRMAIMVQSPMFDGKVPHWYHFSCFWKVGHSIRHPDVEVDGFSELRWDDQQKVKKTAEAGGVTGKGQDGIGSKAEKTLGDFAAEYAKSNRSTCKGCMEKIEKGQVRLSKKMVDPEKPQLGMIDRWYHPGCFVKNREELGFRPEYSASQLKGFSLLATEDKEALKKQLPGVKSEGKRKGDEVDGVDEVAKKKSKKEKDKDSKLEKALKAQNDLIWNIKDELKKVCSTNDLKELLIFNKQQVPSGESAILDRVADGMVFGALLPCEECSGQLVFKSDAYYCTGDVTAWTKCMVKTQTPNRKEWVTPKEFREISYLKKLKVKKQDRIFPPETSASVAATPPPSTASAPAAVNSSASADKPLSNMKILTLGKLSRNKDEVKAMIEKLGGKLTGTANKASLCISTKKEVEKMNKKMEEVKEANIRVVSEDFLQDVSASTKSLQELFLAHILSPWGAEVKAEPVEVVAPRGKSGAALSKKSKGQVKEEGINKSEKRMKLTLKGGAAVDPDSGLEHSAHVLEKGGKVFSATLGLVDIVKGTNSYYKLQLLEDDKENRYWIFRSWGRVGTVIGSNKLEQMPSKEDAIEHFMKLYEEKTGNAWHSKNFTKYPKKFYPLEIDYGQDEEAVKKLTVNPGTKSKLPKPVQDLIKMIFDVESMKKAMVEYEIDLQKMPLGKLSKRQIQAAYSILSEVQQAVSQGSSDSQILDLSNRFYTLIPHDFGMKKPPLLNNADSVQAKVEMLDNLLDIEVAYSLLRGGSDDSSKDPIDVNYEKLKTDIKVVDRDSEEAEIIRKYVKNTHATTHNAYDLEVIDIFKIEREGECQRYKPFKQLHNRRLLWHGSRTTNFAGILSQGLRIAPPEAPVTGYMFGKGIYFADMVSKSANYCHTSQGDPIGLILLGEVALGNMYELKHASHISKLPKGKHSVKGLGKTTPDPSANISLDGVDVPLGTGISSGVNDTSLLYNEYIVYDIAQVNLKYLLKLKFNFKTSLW

For `CCc1cc2ccc(C(C)(C#N)Cc3nc(C#N)cc(OC)n3)cc2[nH]c1=O` (single isomer, unassigned) [Compound 203], the IC50 [1] was 50.1 nM, the IC50 [2] was 79.4 nM and the melting point was 179 °C.
